Patent publication US9982265B2, “Inhibition of Bruton's tyrosine kinase (Btk) in the lung to treat severe lung inflammation and lung injury” (BOARD OF REGENTS, THE UNIVERSITY OF TEXAS SYSTEM, priority 2014, dated 2018)

Columns and labels:
Btk = test: Expression of Btk / pBtk in alveolar neutrophils of treated ALI mice, laser confocal microscopy; type: in vivo; conditions: LPS/IC ALI; 2 h after administration of ICs; FIG. 4B
Protocol: (§1) Laser Confocal Microscopy: Purified alveolar neutrophils mounted on cytospins were incubated with the following primary antibodies: anti-mouse Btk, anti-mouse MyD88, anti-mouse MMP-9 (Santa Cruz Biotechnology), and anti-mouse pBtk (Invitrogen, Grand Island, N.Y.). Species specific antibodies conjugated with fluorescent dyes were subsequently applied to slides. Lung tissue sections, processed as routinely done in our laboratory (26, 28), were incubated with anti-mouse FcγRIII antibody (R&D Systems, Minneapolis, Minn.), or anti-mouse MMP-9 antibody (Santa Cruz Biotechnology), or with anti-neutrophil (Ly6G1A8) antibody (Bio X Cell, West Lebanon, N.H.) followed by fluorescence dye-conjugated secondary antibodies. Hoechst 33342 (Calbiochem, San Diego, Calif.) was employed to stain nuclei. Laser confocal microscopy was performed using PerkinElmer Ultra VIEW LCI confocal imaging system with Nikon TE2000-S fluorescence microscope and PlanApox60 immersion oil objective (numerical aperture [NA] 1.4) at room temperature. Ultra VIEW Imaging Suite software (version 5.5.0.4) was used for image processing.
Laser confocal microscopy was employed to confirm the effectiveness of Btk blocking in alveolar neutrophils. […] The effectiveness of Btk silencing in alveolar neutrophils was 92%. […] These experiments were performed at 2 h after administration of ICs.

MMP-9 = test: Expression of MMP-9 in alveolar neutrophils of treated ALI mice, laser confocal microscopy; type: in vivo; conditions: LPS/IC ALI; FIGS. 6A and B
Protocol: as §1
Neutrophils are implicated in ALI because of various substances released from granules into the area of inflammation. MMP-9 (gelatinase B) is one of the most extensively studied MMPs in the context of ALI. […]

alveolar neutrophils = test: Uptake of alveolar neutrophils by mouse spleen macrophages (co-culture 1 h); type: cell-based; conditions: neutrophils from treated LPS/IC ALI mice versus ALI; FIG. 5B
Protocol: Neutrophil Apoptosis/Uptake: Purified alveolar neutrophils were evaluated for the presence of cleaved caspase 3 as done routinely in our laboratory (13). Cells mounted on cytospins were incubated with anti-mouse cleaved caspase 3 antibody (Cell Signaling Technology, Danvers, Mass.), followed by dye-conjugated secondary antibody. Fluorescence intensity of cleaved caspase 3 was analyzed as described above. In addition, alveolar neutrophils were co-cultured with mouse spleen macrophages for 1 h (43, 44), and percentage of phagocytosed neutrophils was calculated. In separate sets of experiments bone marrow neutrophils (BMPMNs) were purified according to the previously published protocol (54) and cultivated for 24 h to induce spontaneous apoptosis. Some cells were cultured in the presence of LPS and anti-KC:KC immune complexes. In other experiments, BMPMNs were treated with siRNA specific for Btk (Santa Cruz Biotechnology) conjugated to F(ab′)2 fragments of the Ly6G1A8 antibody. Similarly conjugated control siRNA (Santa Cruz Biotechnology) or F(ab′)2 fragments of the Ly6G1A8 alone served as controls.
In other experiments, purified alveolar neutrophils were co-cultured with mouse spleen macrophages for 1 h, and the percentage of phagocytosed neutrophils was assessed by counting numbers of neutrophils present inside macrophages. […]

thrombomodulin (TM) = test: Thrombomodulin in BAL fluid by Western blot, flu induced ALI; type: in vivo, mice; conditions: FIG. 13

Substance: Cont siRNA: control siRNA #8 (SEQ ID NO:26/27) conjugated to F(ab′)2 fragments of Ly6G1A8 (chain 1 UUCCUCUCCACGCGCAGUACAUUUA; chain 2 AAGGAGAGGUGCGCGUCAUGUAAAU; conjugated to antibody F(ab')2 fragment, attachment not given here; one strand is listed 3' to 5')
- Btk in lung neutrophils (Btk): normal levels
- MMP-9 expression in lung neutrophils (MMP-9): detectable
- uptake (phagocytosis) of apoptotic alveolar neutrophils by macrophages (alveolar neutrophils): no effect
- levels of TM in BAL fluid (thrombomodulin (TM)): significantly increased levels
